Reference: ChEMBL document CHEMBL4219088, “Novel 4-aminoquinazoline derivatives induce growth inhibition, cell cycle arrest and apoptosis via PI3Kα inhibition” (Bioorg Med Chem, 2018)

Legend:
Assay type in all cases: functional, cell-based
[1] = test system: HCT-116; test: Antiproliferative activity against human HCT116 cells after 72 hrs by sulforhodamine B assay; details: HCT-116, 72 h
[2] = test system: SK-HEP1; test: Antiproliferative activity against human SKHEP1 cells after 72 hrs by sulforhodamine B assay; details: SK-HEP1, 72 h
[3] = test system: MDA-MB-231; test: Antiproliferative activity against human MDA-MB-231 cells after 72 hrs by sulforhodamine B assay; details: MDA-MB-231, 72 h
[4] = test system: SNU-638; test: Antiproliferative activity against human SNU638 cells after 72 hrs by sulforhodamine B assay; details: SNU-638, 72 h
[5] = test system: A549; test: Antiproliferative activity against human A549 cells after 72 hrs by sulforhodamine B assay; details: A549, 72 h
[6] = test system: MCF7; test: Antiproliferative activity against human MCF7 cells after 72 hrs by sulforhodamine B assay; details: MCF7, 72 h

Structure (SMILES)	IC50 [1] [µM]	IC50 [2] [µM]	IC50 [3] [µM]	IC50 [4] [µM]	IC50 [5] [µM]	IC50 [6] [µM]
CCCCS(=O)(=O)Nc1cc(-c2ccc3ncnc(NCCN4CCOCC4)c3c2)cnc1OC	0.59	0.44	0.42	0.61	1.56	10.8
COc1ncc(-c2ccc3ncnc(NCCCN4CCOCC4)c3c2)cc1NS(=O)(=O)c1ccc(F)cc1F	18.8	13.4	8.96	4.52	9.82	13.5
CCCCS(=O)(=O)Nc1cc(-c2ccc3ncnc(NCc4ccncc4)c3c2)cnc1OC	5.72	8.98	4.32	6.66	9.42	18.7
CCCCS(=O)(=O)Nc1cc(-c2ccc3ncnc(NCCCN(C)C)c3c2)cnc1OC	0.49	0.86	0.88	1.26	3.52	4.73
COc1ncc(-c2ccc3ncnc(NCCCN(C)C)c3c2)cc1NS(=O)(=O)c1ccc(F)cc1F	2.2	4.68	1.54	1.26	2.78	3.66
COc1ncc(-c2ccc3ncnc(NCc4ccncc4)c3c2)cc1NS(=O)(=O)c1ccc(F)cc1F	17.6	12.4	9.71	6.21	11.4	22.5
CCCCS(=O)(=O)Nc1cc(-c2ccc3ncnc(NCCCN4CCOCC4)c3c2)cnc1OC	1.74	1.14	2.58	0.98	3.14	4.59
